Test results published in patent US7781452B2, “Imidazopyridine compound” (Eisai R&D Management Co., Ltd., priority 2004, dated 2010).
Blank lines part the entries; values can stand above or below the molecule they belong to.

Tests used:
[1] = tested on: Gastric Acid Secretion in Rats; experiment: Inhibitory effects on gastric acid secretion in pylorus-ligated, histamine-stimulated rats; type: in vivo, rat; conditions: male SD rats, 10 mg/kg into the duodenum, histamine 20 mg/kg subcutaneously, eight hours after administration
Method: Seven-week-old male SD rats fasted from the day before experiments were used. The rats were subjected to celiotomy along the median line under ether anesthesia, and the pylorus was ligated. Test compounds were dissolved or suspended in 0.5% methyl-cellulose solution (solvent) and prepared the concentration of 5 mg/ml. […] Then the abdomen was sutured. Eight hours after the administration of solvent or test compound, rat was sacrificed and stomach was isolated for the measurement of the volume of gastric juice. After the volume of gastric juice was determined, the acid concentration was measured using 0.25 ml of gastric juice by titration against 0.04 mol/l NaOH solution to pH 7.0. The acid output was calculated as (volume of gastric juice)×(acid concentration). The inhibition rate (%) was calculated according to the formula shown below. The number of animals of each experimental group is four. Inhibition rate (%)=100×(A−B)/A • A: acid output in solvent administered group • B: acid output in test compound administered group

CYP1A1 = experiment: Cytochrome P450 (CYP) gene induction in human cryopreserved hepatocytes, CYP1A1 mRNA; type: in vitro ADME; conditions: for CYP1A1 mRNA induction potency, % of the positive control (100%): 48-hr exposure
Method: (§1) Human cryopreserved hepatocytes purchased from In Vitro Technology were quickly thawed at 37° C. After ice-cold William's E (WE) medium supplemented with 10% FCS, penicillin (100 U/mL), streptomycin (100 μg/mL) and glutamine (2 mM) (WE medium) was gradually added to hepatocytes, the cells were centrifuged at 500 rpm for 5 min at 4° C. The supernatant was removed and the cells were resuspended in WE medium to obtain 5×10^5 cells/mL. The cells were plated into collagen-coated 48-well plates (1×10^5 cells/cm^2) and cultured at 37° C. and 5% CO2 for about 24 hr.
(§2) Medium was replaced with Hepato-STIM (trademark, BD Biosciences) supplemented with EGF, penicillin (100 U/mL), streptomycin (100 μg/mL) and glutamine (2 mM) (HS medium) and the cells were cultured for about 24 hr. At about 48 hr of culture after seeding, the cells were treated with the test compounds and β-naphtoflavone (β-NF, positive control for human CYP1A1 and CYP1A2, SIGMA) prepared by HS medium for about 48 hr. Medium was changed daily. The final concentration of β-NF was set to 10 μM. All compounds were dissolved in dimethylsulfoxide (DMSO, Wako), resulting in a final vehicle concentration of 0.1% (v/v). To the control cells, HS medium containing 0.1% DMSO was added.
(§3) After 48-hr exposure, cells were washed once using PBS, and total RNA was purified using Qiagen RNeasy Mini Kit (Qiagen) according to the manufacturer's instruction. Purified total RNA was then used as template for first strand cDNA synthesis. For reverse transcription (RT) reaction, Oligo dT was employed. The RT reaction was carried using TaqMan Reverse Transcription Reagents (Applied Biosystems) at 25° C. for 10 min followed by 60-min reaction at 48° C., and then the enzyme was inactivated at 95° C. for 5 min in Gene Amp PCR System 9700. The resulting cDNA was subjected to polymerase chain reaction (PCR) in ABI7700 Sequence Detection System (Applied Biosystems). For the mRNA analyses of CYP1A1 and GAPDH, SYBR Green PCR Core Reagents kit (Applied Biosystems) was used, and CYP1A2 mRNA was quantified using TaqMan PCR Core Reagents kit (Applied Biosystems).
(§4) The amount of mRNA of CYP1A1 or CYP1A2 was divided by that of GAPDH. Then, the ratio (fold) of the values obtained in test compounds (X) and positive control (P) against that in control was calculated. The induction potency of test compound (%) was obtained by following equation: Induction potency of test compound (%)=100×(X−1)/(P−1) <Results>

CYP1A2 = experiment: Cytochrome P450 (CYP) gene induction in human cryopreserved hepatocytes, CYP1A2 mRNA; type: in vitro ADME; conditions: for CYP1A2 mRNA induction potency, % of the positive control (100%): 48-hr exposure
Method: as §1, §2, §3, §4

[2] = 10 μM, normalised to GAPDH, vs 0.1% DMSO control

- CYP1A1 mRNA induction potency, % of the positive control (100%) (CYP1A1; 0.3 μM): 2.03%
- CYP1A1 mRNA induction potency, % of the positive control (100%) (CYP1A1; 1 μM): 8.02%
- CYP1A1 mRNA induction potency, % of the positive control (100%) (CYP1A1; 3 μM): 11.27%
- CYP1A1 mRNA induction potency, % of the positive control (100%) (CYP1A1; 10 μM): 18.46%
- CYP1A2 mRNA induction potency, % of the positive control (100%) (CYP1A2; 0.3 μM): 8.36%
- CYP1A2 mRNA induction potency, % of the positive control (100%) (CYP1A2; 1 μM): 12.16%
- CYP1A2 mRNA induction potency, % of the positive control (100%) (CYP1A2; 3 μM): 11.78%
- CYP1A2 mRNA induction potency, % of the positive control (100%) (CYP1A2; 10 μM): 29.18%
Compound: COc1ccnc(C[S+]([O-])c2nc3cc(C)c(OC)nc3[n-]2)c1C.[Na+] (stereo not drawn) [Example 1, 5-Methoxy-2-(((4-methoxy-3-methyl-2-pyridinyl)methyl)sulfinyl)-6-methyl-3H-imidazo[4,5-b]pyridineSodium salt]
- Inhibition rate(%) of acid output [1]: 79%

Compound: COc1ccnc(C[S+]([O-])c2nc3cc(C)c(OCC(F)(F)F)nc3[n-]2)c1C.[Na+] (stereo not drawn) [Example 2, 2-(((4-Methoxy-3-methyl-2-pyridinyl)methyl]sulfinyl)-6-methyl-5-(2,2,2-trifluoroethoxy)-3H-imidazo[4,5-b]pyridine Sodium salt]
- Inhibition rate(%) of acid output [1]: 86%

Compound: COc1ccnc(C[S+]([O-])c2nc3cc(C)c(OCC(F)F)nc3[n-]2)c1C.[Na+] (stereo not drawn) [Example 3, 5-(2,2-Difluoroethoxy)-2-(((4-methoxy-3-methyl-2-pyridinyl)methyl)sulfinyl)-6-methyl-3H-imidazo[4,5-b]pyridine Sodium salt]
- Inhibition rate(%) of acid output [1]: 85%

- CYP1A1 mRNA induction potency, % of the positive control (100%) (CYP1A1; 10 μM): 100%
- CYP1A1 mRNA fold induction as compared with control (figures in parentheses) (CYP1A1; [2]): 79.97 fold
- CYP1A2 mRNA induction potency, % of the positive control (100%) (CYP1A2; 10 μM): 100%
- CYP1A2 mRNA fold induction as compared with control (figures in parentheses) (CYP1A2; [2]): 14.16 fold
Compound: O=c1cc(-c2ccccc2)oc2ccc3ccccc3c12 [βNF, β-naphtoflavone, reference compound]
